{
  "source": "patent US10513694B2",
  "about": "“Thienopyrrole compounds and uses thereof” (PROMEGA CORPORATION, priority 2015, dated 2019)",
  "key": {"NANOLUC® enzyme": {"target": "NANOLUC® enzyme (Oplophorus gracilirostris, UniProt Q9GV45, A31E/A60N/A81I/F95D/I117V/K70R/L54V/L99Q/M102K/N193R/P142E/Q151K/Q38R/Q45L/V71I/Y165I)", "sequence (Q9GV45 28-196 with tags or gaps with the stated changes limits assumed)": "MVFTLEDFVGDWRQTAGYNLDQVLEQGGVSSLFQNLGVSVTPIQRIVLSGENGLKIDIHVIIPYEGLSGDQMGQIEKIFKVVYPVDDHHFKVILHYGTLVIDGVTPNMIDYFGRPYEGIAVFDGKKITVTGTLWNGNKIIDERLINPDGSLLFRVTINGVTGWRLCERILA", "assay": "Inhibitor IC50 determination (NANOLUC enzyme, furimazine)", "format": "biochemical", "conditions": "IC50 (uM), 0.4 ng/ml NANOLUC enzyme, final furimazine 10 uM (at Km)"}, "[1]": {"target": "T1, Nluc enzyme in REALTIME-GLO™ MT Cell Viability reagent (Oplophorus gracilirostris, UniProt Q9GV45, A31E/A60N/A81I/F95D/I117V/K70R/L54V/L99Q/M102K/N193R/P142E/Q151K/Q38R/Q45L/V71I/Y165I)", "T1 construct": "purchased Promega Corporation", "T1 sequence (Q9GV45 28-196 with tags or gaps with the stated changes limits assumed)": "as above", "assay": "RealTime-Glo / Caspase-Glo multiplex in K562 cells", "format": "cell-based", "conditions": "Trail titration, 200 μM in CASPASE-GLO 3/7 reagent, 2 hrs RT", "protocol": "K562 were plated into wells of a Corning 3707 assay plate in 20 μL RPMI media at 2000 cells/well and incubated overnight. A Trail titration was prepared in 10 μL RPMI media and added to cells. Then either 10 μL 4× REALTIME-GLO™ MT Cell Viability reagent (RTCV; Promega Corporation) or media (control) was added to each well. The reactions were incubated at 37° C./5% CO2 at various time points, and luminescence was measured on a Tecan M1000 Pro plate reader. At 5 hrs, 40 μL CASPASE-GLO® 3/7 detection reagent (Promega Corporation) was added with or without 200 μM JRW-0004. The reaction was incubated for 2 hrs at room temperature (RT), and luminescence was measured on the Tecan M1000 Pro plate reader."}, "purified Nluc enzyme": {"target": "T2, purified Nluc enzyme (Oplophorus gracilirostris, UniProt Q9GV45, A31E/A60N/A81I/F95D/I117V/K70R/L54V/L99Q/M102K/N193R/P142E/Q151K/Q38R/Q45L/V71I/Y165I)", "T2 construct": "purchased Promega Corporation", "T2 sequence (Q9GV45 28-196 with tags or gaps with the stated changes limits assumed)": "as above", "format": "biochemical", "conditions": "titration up to 100 μM final; RT 2 hrs; pro-substrate PBI-4442 + DTT", "protocol": "In a Corning 3570 assay plate, purified Nluc enzyme (Promega Corporation), 20 mM DTT, and an Nluc pro-substrate (PBI-4442, which is described in US Patent Publication No. 2013/0130289), which is converted to an Nluc substrate upon reduction with DTT, was added. Compound titrations of JRW-0004, JRW-0013, JRW-0006, JRW-0042, JRW-0138, and JRW-0147 were then made (1:2 serial dilution in PBS, 11 points plus no inhibitor control, starting at 200 μM; 100 μM final concentration in reaction). Compound titrations were added in equal volume to the wells of the assay plate. The reactions were incubated at RT for 2 hrs, and luminescence was measured on Tecan M1000 Pro plate reader. Half-maximal inhibitor (thienopyrrole compound) concentrations (IC50s) were determined using GraphPad Prism 6.03."}, "[2]": {"tested_on": "firefly luciferase, e.g., ULTRAGLO® luciferase", "assay": "Specificity of inhibition: firefly luciferase activity", "format": "biochemical", "conditions": "1 μM luciferin in Luciferase Detection Reagent; RT 2 hrs", "protocol": "The following example describes the specificity of disclosed thienopyrrole compounds, JRW-0004, JRW-0013, JRW-0006, JRW-0042, JRW-0138, and JRW-0147, to inhibit Nluc luciferase activity versus firefly luciferase activity, e.g., ULTRAGLO® luciferase. In a Corning 3570 assay plate, a solution containing 1 μM luciferin in Luciferase Detection Reagent (Promega Corporation V865/859) was added to the assay wells. An equal volume of titrations the thienopyrrole compounds, JRW-0004, JRW-0013, JRW-0006, JRW-0042, JRW-0138, and JRW-0147 were then added to the wells. The reactions were incubated at RT for 2 hrs, and luminescence was measured on Tecan M1000 Pro plate reader."}, "Nluc enzyme": {"tested_on": "Nluc enzyme", "assay": "Multiplex RealTime-Glo / Caspase-Glo 3/7 in MCF7 cells", "format": "cell-based", "protocol": "(§1) A) In a Corning 3570 assay plate, MCF7 cells were plated at 1,000 cells/well in 20 μL of cell culture media (EMEM supplemented with 0.01 mg/mL human recombinant insulin and 10% fetal bovine serum) and incubated in overnight. 10 μL of 4× REALTIME-GLO™ MT Cell Viability reagents (Promega Corporation) in media or 10 μL media only was added to the cells. 10 μL of 40 μM staurosporine in media or 10 μL media only (control) was added to the cells. The cells were incubated, and caspase activation monitored at 5.5 hrs post-reagent addition. To monitor caspase activation, 40 μL CASPASE-GLO® 3/7 Assay Reagent (Promega Corporation), either on its own (Caspase) or with 200 μM of JRW-0004, JRW-0013, or JRW-0042, was added. Reactions were incubated at RT, and luminescence was measured at 1 hr 10 min post-reagent addition on Tecan M1000 Pro plate reader.\n(§2) When comparing the signal generated from the CASPASE-GLO® reagent in media only versus the signal generated in media containing REALTIME-GLO™ reagent, the signal is higher in the multiplex reaction."}, "Nluc luciferase": {"target": "Nluc luciferase (Oplophorus gracilirostris, UniProt Q9GV45, A31E/A60N/A81I/F95D/I117V/K70R/L54V/L99Q/M102K/N193R/P142E/Q151K/Q38R/Q45L/V71I/Y165I)", "sequence (Q9GV45 28-196 with tags or gaps with the stated changes limits assumed)": "as above", "assay": "Inhibition of purified Nluc, dose and time dependence", "format": "biochemical", "conditions": "pro-substrate PBI-4442, DTT, TERGITOL, RT, various time points", "protocol": "A solution of purified Nluc and an Nluc pro-substrate (PBI-4442, which is described in US 2013/0130289), which is converted to an Nluc substrate upon reduction with DTT, were prepared in PBS buffer, pH 7.5. A 40 mM solution of DTT in PBS, pH 7.5 containing 1% TERGITOL was also prepared. Titrations of the thienopyrrole compounds JRW-0004, WZ141-88, WZ141-86, WZ141-74, WZ141-84, WZ141-89, WZ141-90, and WZ141-91 in the buffer containing DTT and TERGITOL were then prepared. An equal volume of the Nluc/pro-substrate solution was added to the thienopyrrole compound titrations in wells of an assay plate. The reactions were incubated at RT, and luminescence was measured at various time points on the Tecan M100 Pro plate reader (integration time 200 ms). IC50 values were determined using GraphPad Prism 6.03."}, "Nluc": {"target": "Nluc (Oplophorus gracilirostris, UniProt Q9GV45, A31E/A60N/A81I/F95D/I117V/K70R/L54V/L99Q/M102K/N193R/P142E/Q151K/Q38R/Q45L/V71I/Y165I)", "sequence (Q9GV45 28-196 with tags or gaps with the stated changes limits assumed)": "as above", "assay": "Multiplex RealTime-Glo / Caspase-Glo 3/7 in MCF7 cells", "format": "cell-based", "set-up": "purchased Promega Corporation", "protocol": "as §1, §2"}, "[3]": {"conditions": "10 μM Stauro vs Control, 200 μM compound"}, "[4]": {"conditions": "CASPASE-GLO 3/7 reagent with 200 μM compound, 1 hr 10 min"}},
  "note": "“Also recorded” adds a separate entry of the source.",
  "data": [
    {"smiles": "CCN(C(=O)Cn1c(C(=O)OC)cc2sccc21)c1cccc(C)c1", "note": "[JRW-0004, methyl 4-(2-(ethyl(m-tolyl)amino)-2-oxoethyl)-4H-thieno[3,2-b]pyrrole-5-carboxylate]", "values": [
      {"measurement": "IC50", "setting": "NANOLUC® enzyme", "value": 1.1, "unit": "µM"},
      {"measurement": "Inhibition of Nluc enzyme in RealTime-Glo reagent (FIG. 1)", "setting": "[1]", "value": "can inhibit the Nluc enzyme"},
      {"measurement": "Inhibition of purified Nluc enzyme (FIG. 2)", "setting": "purified Nluc enzyme", "value": "capable of inhibiting purified Nluc enzyme"},
      {"measurement": "Inhibition of firefly luciferase activity (FIG. 3)", "setting": "[2]", "value": "do not inhibit firefly luciferase activity; also recorded: did not inhibit the firefly luciferase activity"},
      {"measurement": "Fold Cont, Media only", "setting": "Nluc enzyme; [3]", "value": 5.89},
      {"measurement": "Avg (luminescence), Media only, 10 μM Stauro", "setting": "Nluc enzyme; [4]", "value": 54589},
      {"measurement": "Avg (luminescence), Media only, Control", "setting": "Nluc enzyme; [4]", "value": 9261},
      {"measurement": "Inhibition of Nluc luciferase, dose and time dependence (FIGS. 4-6)", "setting": "Nluc luciferase", "value": "inhibit Nluc luciferase in a dose- and time-dependent manner"},
      {"measurement": "Fold Cont, Media containing RealTime-Glo", "setting": "Nluc; [3]", "value": 5.53},
      {"measurement": "Avg (luminescence), Media containing RealTime-Glo, 10 μM Stauro", "setting": "Nluc; [4]", "value": 50266},
      {"measurement": "Avg (luminescence), Media containing RealTime-Glo, Control", "setting": "Nluc; [4]", "value": 9090}
    ]}
  ]
}
